Laboratory results as given in patent publication US20100221763A1, “Specific Acceptors for Transferases to Saccharides and Method for Obtaining and Using Same” (Health Research, Inc, priority 2005, published 2010).

Tests used:
[1] = test system: β-GlcNAc:β1,4GalNAc-T of colon tumor CC9338; assay: β-GlcNAc:β1,4GalNAc-T assay, colon tumor extract; type: biochemical, human; conditions: other acceptors, 1 mg protein of the tissue extract
Method: (§1) Colon tumor tissue (CC9338) and breast tumor tissue (BC9400) were obtained during surgical procedures at Roswell Park Cancer Institute and stored frozen within 1 h at −70° C. The tissues were homogenized at 4° C. with 4 volumes of 0.1M Tris Maleate […] 0.1% NaN3 using kinematica. After adjusting the concentration of Triton X-100 to 2%, these homogenates were mixed in the cold room for 1 h using Speci-Mix (Thermolyne) and then centrifuged at 20,000 g for 1 h at 4° C. The clear fat-free supernatant was stored frozen at −20° C. until use. Aliquots of 10 μL from this extract were used in assays run in duplicates. Glycosyltransferase activity in cell lysate was determined by mixing the lysates with acceptor and radiolabeled donor (monosaccharide) under the reaction conditions detailed below, followed by separation of un-reacted donor from the radioactive product using anionic or hydrophobic chromatography. In all cases, the radioactive content of isolated products was determined by using 3a70 scintillation cocktail (Research Products International, Mount Prospect, Ill.) and a Beckman LS6500 scintillation counter. Controls for each assay contained the reaction mixture with everything except the acceptor. All assays were run in duplicate.
(§2) The acceptors used for measuring the glycosyltransferase and sulfotransferase activities are given in Table I. The following are the conditions for individual enzymatic assays. Reaction temperature in all cases was 37° C. α2,3- and α2,6 sialytransferase (ST) assay reactions proceeded for 2 h in a mixture containing 100 mM sodium cacodylate buffer (pH 6.0), 7.5 mM acceptor, CMP-[9-^3H]NeuAc (typically 0.2 μCi) and 10 μl cell extract in a total volume of 20 μl [Chandrasekaran et al., 1995]. βGlcNAc:β1,4Gal-T and αGalNAc:β1,3Gal-T assay mixtures in duplicate contained 0.1M Hepes-NaOH pH 7.0, 7 mM ATP, 20 mM Mn acetate, 1 mM UDP-Gal, UDP [^14C]Gal (0.05 μCi; 327mCi/mmol; Amersham), 0.5 mM acceptor (unless otherwise stated) and the enzyme in a total volume of 20 μL. It was incubated for 4 h [Chandrasekaran et al., 2001]. βGlcNAc:β1,4GalNAc-T assay mixtures in duplicate contained 0.1M Hepes-NaOH pH 7.0, 7 mM ATP, 20 mM Mn acetate. UDP [^3H] GalNAc (0.20 μCi; 7.8 Ci/mmol: New England Nuclear Corp.) 7.5 mM acceptor (unless otherwise stated) and the enzyme in a total volume of 20 μL and incubated for 4 h [Chandrasekaran et al., 2001].
(§3) Dowex-1-C1 or Sep-Pak C18 cartridges were used to isolate radiolabeled product from the reaction mixture. For GalT, GalNAc-T and FT assays, the incubation mixture was diluted with 1 ml water and passed through a 1 ml Dowex-1-C1 column [Chandrasekaran et al., 1996; Chandrasekaran et al., 2001]. The column was washed twice with 1 ml of water. The breakthrough and the water wash contained the [^14C]-galactosylated or [^14C]-fucosylated products formed with neutral acceptors. 3 ml of 0.1M NaCl was used to obtain [^14C]-fucosylated products from sialylated acceptors after water elution. For sialytransferase assays, the radioactive products from benzylglycosides were separated by hydrophobic chromatography on Sep-Pak C18 cartridge (Waters, Milford, Mass.), and elution of the product was done with 3 ml methanol [Palcic et al., 1988]. For sulfotransferase assays, elution of the [^35S]-sulfated compound from Dowex-1-C1 column was achieved by 3 ml of 0.2M NaCl [Chandrasekaran et al., 2004].

[2] = target: T1, FTVI of breast tumor BC9400 (Homo sapiens, UniProt P51993); assay: FTVI assay, breast tumor extract; type: biochemical; conditions: 1 mg protein of the tissue extract
T1 construct: from tissue; host or cells: breast tumor tissue BC9400, Triton X-100 extract
Method: as §1, with “duplicate. […]” for “duplicate.”

[3] = target: T2, FTVI of colon tumor CC9338 (Homo sapiens, UniProt P51993); assay: FTVI assay, colon tumor extract; type: biochemical; conditions: 1 mg protein of the tissue extract
T2 construct: from tissue; host or cells: colon tumor tissue CC9338, Triton X-100 extract
Method: as §1, with “duplicate. […]” for “duplicate.”

[4] = test system: β-GlcNAc:β1,4Gal-T of breast tumor BC9400; assay: β-GlcNAc:β1,4Gal-T assay, breast tumor extract; type: biochemical, human; conditions: other acceptors, 1 mg protein of the tissue extract
Method: as §1, §2, §3

[5] = test system: β-GlcNAc:β1,4Gal-T of colon tumor CC9338; assay: β-GlcNAc:β1,4Gal-T assay, colon tumor extract; type: biochemical, human; conditions: other acceptors, 1 mg protein of the tissue extract
Method: as §1, §2, §3

[6] = test system: β-GlcNAc:β1,4GalNAc-T of breast tumor BC9400; assay: β-GlcNAc:β1,4GalNAc-T assay, breast tumor extract; type: biochemical, human; conditions: other acceptors, 1 mg protein of the tissue extract
Method: as §1, §2, §3

T1 sequence (P51993 whole entry): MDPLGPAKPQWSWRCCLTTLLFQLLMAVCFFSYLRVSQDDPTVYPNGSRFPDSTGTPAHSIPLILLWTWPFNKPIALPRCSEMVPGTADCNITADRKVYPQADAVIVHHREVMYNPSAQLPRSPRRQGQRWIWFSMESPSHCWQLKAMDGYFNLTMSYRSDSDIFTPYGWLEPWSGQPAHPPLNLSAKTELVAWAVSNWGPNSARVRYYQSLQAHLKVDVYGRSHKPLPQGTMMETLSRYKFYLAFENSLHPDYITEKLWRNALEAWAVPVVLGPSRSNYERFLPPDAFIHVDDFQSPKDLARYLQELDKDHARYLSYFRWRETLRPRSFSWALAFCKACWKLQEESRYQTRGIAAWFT
T2 sequence (P51993 whole entry): as above

## CC(=O)N[C@H]1[C@H](OCc2ccccc2)O[C@H](CO)[C@@H](O[C@@H]2O[C@H](CO)[C@@H](O)[C@H](O)[C@H]2NC(C)=O)[C@@H]1O [GlcNAcβ1,4GlcNAcβ-O-Bn]
[1]
  b) β-GlcNAc:β1,4GalNAc-T activity: incorporation of radioactive sugar: 18.9 CPM × 10^−3
[2]
  FTVI activity: incorporation of radioactive sugar: 0.3 CPM × 10^−3
[3]
  FTVI activity: incorporation of radioactive sugar: 139.1 CPM × 10^−3
[4]
  a) β-GlcNAc:β1,4Gal-T activity: incorporation of radioactive sugar: 436.7 CPM × 10^−3
[5]
  a) β-GlcNAc:β1,4Gal-T activity: incorporation of radioactive sugar: 307.6 CPM × 10^−3
[6]
  b) β-GlcNAc:β1,4GalNAc-T activity: incorporation of radioactive sugar: 57.8 CPM × 10^−3
